Tests used:
Human SCD patients = assay: Computer-assisted intravital microscopy (CAIM) of conjunctival microcirculation, Example 1; format: in vivo; details: SCD patients hospitalized for VOC, high dose, relative to placebo group
Text: Human SCD patients are enrolled to be studied by a non-invasive videotape of the conjunctival microcirculation. Recently, microvascular characteristics in SCD patients have been quantified using computer-assisted intravital microscopy (CAIM), a novel technology involving intravital video-microscopy coupled with imaging protocols, to study and analyze steady-state and vaso-occlusive crisis (VOC) microvascular characteristics in SCD (Cheung et al, Blood. 2002; 99:3999). During VOC, decreases in vascularity (“blanching”) occur as a result of vasoconstriction and diminished blood flow through the microvessels. […] The microvascular changes during VOC are transient and revert to steady-state values after crisis resolution. These specific reversals in VOC are used as the basis for this study to evaluate and quantify the effects of PPS on the microcirculation.
Because of the unique shape and form of conjunctival vessels, each vessel is easily identified and located to be re-studied. Each vessel serves as its own reference (control) to evaluate and quantify microvascular changes. […] CAIM is used to non-invasively videotape and longitudinally quantify the changes in venular diameter and red-cell velocity pre- and post-treatment of PPS, sulodexide or placebo at various time points post treatment.

[1] = test system: adhesion of RBC from sickle cell patients (ssRBC) to human umbilical vein endothelial cells (HUVEC); assay: Variable height flow chamber adhesion of ssRBC to endothelial cells, Example 4; format: cell-based; details: HUVEC stimulated with thrombin or TNF-alpha, treated thirty minutes at 37° C., versus control preparations
Procedure: The effects of PPS or sulodexide on sickle cell erythrocyte adhesion are evaluated by in vitro study according to procedures similar to those described in Telen et al. (Blood, 2004, 104:3774); Niihara et al (BMC Blood Disorders, 2005, 5:4); and Barabino et al (Blood, 1999, 93:1422-29). In brief, a variable height flow chamber is used to quantitate the effects of PPS on the adhesion of RBC from sickle cell patients (ssRBC) to endothelial cells. Human umbilical vein endothelial cells (HUVEC) are grown on gelatin coated glass slides until confluent. The HUVEC's are then stimulated with thrombin or TNF-alpha and washed with PBS with Ca^+2 and Mg^+2. Following activation, the endothelial cells are treated with various concentrations of PPS for thirty minutes at 37° C. The endothelial cells are then washed in PBS with Ca^+2 and Mg^+2, mounted onto the variable height flow chamber where the final testing unit is assembled. […] Adhesion is quantitated by counting the adherent ssRBCs in a field in 7 different locations along the slide in the direction of the flow. The height of the chamber at each of these 7 locations is measured so that the shear stress can be calculated; note that the typical range seen is between 0.3 to 2.7 dynes/cm^2. […]

transplanted livers = details: livers pretreated with PPS; cited from earlier work
LNCaP = details: dependent on anchorage; cited from earlier work
DU145 = details: DU145, dependent on anchorage; cited from earlier work
PC-3 = details: PC-3, not dependent on anchorage; cited from earlier work
tumor cell adhesion = details: direct measurements, Schamhart; cited from earlier work
[2] = Wardle 1992; cited from earlier work
HUVEC cells = details: Barabino et al, Blood 1999; cited from earlier work
immobilized P-selectin = target: T1, immobilized P-selectin (Homo sapiens, UniProt P16109); details: Matsui, Blood 2002; cited from earlier work
T1 sequence (P16109 42-830): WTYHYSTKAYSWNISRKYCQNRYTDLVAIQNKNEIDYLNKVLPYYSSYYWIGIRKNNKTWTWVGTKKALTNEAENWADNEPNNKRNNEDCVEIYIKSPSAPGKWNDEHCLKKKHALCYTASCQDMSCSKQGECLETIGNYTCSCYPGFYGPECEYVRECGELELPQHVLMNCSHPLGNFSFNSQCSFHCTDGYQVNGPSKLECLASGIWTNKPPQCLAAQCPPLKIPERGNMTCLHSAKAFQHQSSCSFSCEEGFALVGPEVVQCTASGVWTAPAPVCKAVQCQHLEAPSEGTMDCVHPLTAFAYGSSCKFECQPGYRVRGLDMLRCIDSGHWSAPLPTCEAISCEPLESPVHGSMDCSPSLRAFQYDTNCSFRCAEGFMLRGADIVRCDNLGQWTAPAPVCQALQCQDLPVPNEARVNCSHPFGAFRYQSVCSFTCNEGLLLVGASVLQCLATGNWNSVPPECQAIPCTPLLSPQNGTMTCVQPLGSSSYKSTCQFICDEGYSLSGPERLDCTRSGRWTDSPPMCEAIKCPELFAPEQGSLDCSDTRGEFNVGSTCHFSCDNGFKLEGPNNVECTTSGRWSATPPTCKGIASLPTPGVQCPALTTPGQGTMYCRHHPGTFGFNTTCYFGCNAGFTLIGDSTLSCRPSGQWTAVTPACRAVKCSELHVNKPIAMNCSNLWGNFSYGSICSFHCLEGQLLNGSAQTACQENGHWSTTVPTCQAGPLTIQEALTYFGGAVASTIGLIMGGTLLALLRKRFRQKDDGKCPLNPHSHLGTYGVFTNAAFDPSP

human endothelial cells = details: Gupta et al; cited from earlier work
[3] = test system: patients with sickle cell crises; details: four patients, 12-month self-administered intravenous minidose heparin vs 12 months off heparin; cited from earlier work

Pentosan polysulfate [PPS]
microvascular flow (venular diameter and red-cell velocity by CAIM) (Human SCD patients): significant improvement in microvascular flow
percentage of adherent cells [1]: reduction
leukocytes adhering to the vascular wall (transplanted livers): significantly fewer
reperfusion edema (transplanted livers): no reperfusion edema
growth and migration of tumor cell line (LNCaP): inhibited
growth and migration of tumor cell line (DU145): inhibited
growth and migration of tumor cell line (PC-3): no effect
tumor cell adhesion (tumor cell adhesion): inhibited
anticoagulant potency relative to heparin [2]: about one-fifteenth

chondroitin sulfate
sickle cell adhesion to HUVEC cells (HUVEC cells): inhibited

dextran sulfate
sickle cell adhesion to HUVEC cells (HUVEC cells): inhibited

heparin
in vitro flow adhesion of sickle cells to immobilized P-selectin (immobilized P-selectin): inhibited
sickle cell adhesion to HUVEC cells (HUVEC cells): inhibited
sickle erythrocyte adhesion to human endothelial cells in vitro (human endothelial cells): inhibited
pain reduction [3]: improvement in pain reduction

heparin sulfate
sickle cell adhesion to HUVEC cells (HUVEC cells): did not

low molecular weight heparin
in vitro flow adhesion of sickle cells to immobilized P-selectin (immobilized P-selectin): not low molecular weight heparin proved to be effective
